Data reported in patent US8071540B2, “Virus derived antimicrobial peptides” (priority 2007, dated 2011).
Where no end group is shown, it is not given here.

Legend:
[1] = test system: Aspergillus fumigatus; experiment: In vitro fungal killing assay; settings: 2 isolates
[2] = test system: Indonesia H5N1; type: in vivo, mice; settings: peptide added to virus just prior to intranasal dose, FIG. 25
[3] = test system: Methicillin Resistant S. aureus; type: cell-based, Staphylococcus aureus; set-up: unit not given here; settings: 99.9% killing
[4] = test system: Cryptococcocus neoformans; experiment: In vitro fungal killing assay; settings: 3 isolates
[5] = test system: Pseudomonas aeruginosa; experiment: Bacterial lysis (broth dilution) assay, MBC; type: cell-based; set-up: MBC, Psuedomonas aeruginosa, 0 mM NaCl / MBC, Psuedomonas aeruginosa, 150 mM NaCl: unit not given here; settings: 99.9% killing
[6] = test system: P. aeruginosa and primary human skin fibroblasts; settings: co-culture; cited from earlier work
[7] = test system: C. tropicalis
[8] = test system: vaccine strain of B. anthracis; type: cell-based, Bacillus anthracis; settings: FIG. 26
[9] = test system: P. aeruginosa; settings: intravenous administration; cited from earlier work
[10] = test system: C. lusitaniae; experiment: In vitro fungal killing assay; settings: 6 μM, RPMI 1640, 37° C.; all isolates
[11] = test system: C. albicans; experiment: In vitro fungal killing assay; settings: 6 μM, RPMI 1640, 37° C.; reference strain SC5314 and all clinical isolates
[12] = test system: C. krusei
[13] = test system: Staphylococcus aureus; experiment: Bacterial lysis (broth dilution) assay, MBC; type: cell-based; settings: 99.9% killing
Text: The assays for growth inhibition of a microbial target can be used to derive a minimum bactericidal concentration (MBC) value for the peptide, i.e., the concentration of peptide required to kill 99.9% (3-log decrease) of the microbial sample being tested. This value is well known to those in the art as representative of the effectiveness of a particular antimicrobial agent (e.g., an antibiotic) against a particular organism or group of organisms. In assays to detect the MBC of a peptide, growth inhibition of a bacterial population also can be measured with reference to the number of colony forming units (cfu) after exposure to a peptide relative to a control experiment without a peptide.
Bacterial lysis assay. Bacterial lysis assays were conducted in a manner similar to that described previously (Lehrer, R. I., M. E. Selsted, D. Szklarek, and F. J. 1983. Infect. Immun. 42: 10-4, 1983; Miller, M. A., R. F. Garry, J. M. Jaynes, and R. C. Montelaro, AIDS Res Hum Retroviruses 7:511-519, 1991). Bacterial suspensions were cultured in Luria-Bertani Broth to mid-log growth phase and washed by two cycles of centrifugation and suspension in 10 mM phosphate buffer. The Abs600 of the suspension was adjusted with 10 mM phosphate buffer such that, upon dilution, 5-10×10^5 cfu/mL would be treated in the assay. Bacteria were incubated for 1 h with two-fold dilutions of peptides (100 μM to 100 nM) in 96-well plates using 10 mM phosphate buffer, pH 7.2, as a diluent. Ten-fold dilutions of bacteria were performed to 1:1 000; a 100 μl aliquot from each condition was spread on the surface of tryptic soy agar plates (Difco, Detroit, Mich.) which were incubated overnight. Colonies of surviving bacteria (cfu, colony-forming units) were counted and compared to untreated controls to determine the amount of peptide-induced killing under each condition. Log killing is defined as the log of the ratio of cfu present before and after treatment with peptide. The minimal bactericidal concentration, MBC, is the peptide concentration at which 99.9% (three log) killing is achieved (Pearson et al., Antimicrob. Agents Chemother. 18: 699-708, 1980).
Results. Representative gram positive (S. aureus) and gram negative (P. aeruginosa) clinical isolates were used as the index bacteria to survey the peptides described herein.
A limitation of many host-derived antimicrobial peptides is their decreased activity at physiologic (150 mM) NaCl concentration. See Friedrich et al., Antimicrobial Agents and Chemotherapy 43:1542-1548. The peptides WLSA-5 (SEQ ID NO: 3) and LL37 were tested against the two index strains at physiologic NaCl. […] The activity of antimicrobial peptides described herein were compared to an expanded list of clinical bacterial isolates. These are summarized in Table 2 by comparing their MBCs in phosphate buffer alone (low salt) and phosphate buffer containing 150 mM NaCl (physiologic conditions). Inspection of this table would lead one skilled in the art to conclude that the activity of antimicrobial peptides described herein compare favorably to the host derived antimicrobial peptides as it relates to the spectrum and potency of antimicrobial activity.

[14] = test system: Indonesia H5N1; type: cell-based, influenza virus; settings: eleven two-fold serial dilutions from 50 μM, FIG. 24
[15] = 0 mM NaCl (10 mM phosphate buffer)

For “RRWVRRVRRVWRRVVRVVRRWVRR [WLBU-2, RRWVRRVRRVWRRVVRVVRRWVRR]”, the “concentration to which A. fumigatus isolates were resistant” value [1] was greater than 100 µM, the “infectivity of virus in mice” value [2] was “inactivate the infectivity of virus” and the “MBC, Methicillin Resistant S. aureus, 0 mM NaCl” value [3, 15] was 200. The “MBC, Methicillin Resistant S. aureus, 150 mM NaCl” value ([3]; 150 mM NaCl (physiologic)) was 100, the “concentration that completely killed C. neoformans” value [4] was 3 µM and the “MBC, Psuedomonas aeruginosa, 0 mM NaCl” value [5, 15] was 200. For the same sequence, the “MBC, Psuedomonas aeruginosa, 150 mM NaCl” value ([5]; 150 mM NaCl (physiologic)) was 100, the antibacterial selectivity [6] was “highest antibacterial selectivity of all peptides evaluated” and the “concentration that completely killed 75% of the isolates, C. tropicalis” value ([7]; RPMI 1640, 37° C.) was 3 µM. For the same sequence, the “concentration that completely killed the remaining isolates, C. tropicalis” value ([7]; RPMI 1640, 37° C.) was 25 µM, the “minimum fungicidal concentration (MFC, >99.9% kill), C. tropicalis” value ([7]; remaining isolates) was no more than 6 µM and the “inhibition of vegetative form” value [8] was “inhibit the vegetative form of B. anthracis”. For the same sequence, the “protection in murine model” value [9] was “protection against a lethal challenge of P. aeruginosa”, the “time to fully fungicidal effect, C. lusitaniae” value [10] was no more than 5 min and the “time to fully fungicidal effect, C. albicans” value [11] was no more than 5 min. For the same sequence, the “concentration that completely killed 75% of the isolates, C. krusei” value ([12]; RPMI 1640, 37° C.) was 3 µM, the “concentration that completely killed the remaining isolates, C. krusei” value ([12]; RPMI 1640, 37° C.) was 25 µM and the “minimum fungicidal concentration (MFC, >99.9% kill), C. krusei” value ([12]; remaining isolates) was no more than 6 µM. The “MBC, Staphylococcus aureus, 0 mM NaCl” value [13, 15] was 1000 nM, the “MBC, Staphylococcus aureus, 150 mM NaCl” value ([13]; 150 mM NaCl (physiologic)) was 600 nM and the “infectious virus plaque formation” value [14] was “dose-dependent decrease in infectious virus plaque formation”.
